Experimental data reported in patent publication US20230348362A1, “LIPID COMPOUNDS AND LIPID NANOPARTICLE COMPOSITIONS” (Suzhou Abogen Biosciences Co., Ltd., priority 2021, published 2023).

Columns and labels:
Type in all cases: physicochemical
[1] = Lipid nanoparticle size and polydispersity by dynamic light scattering; details: LNP of lipid/DSPC/cholesterol/PEG-lipid 50:10:38.5:1.5 encapsulating hEPO mRNA
Protocol: (§1) Briefly, a cationic lipid provided herein, DSPC, cholesterol, and PEG-lipid were solubilized in ethanol at a molar ratio of 50:10:38.5:1.5, and mRNA were diluted in 10 to 50 mM citrate buffer, pH=4. The LNPs were prepared at a total lipid to mRNA weight ratio of approximately 10:1 to 30:1 by mixing the ethanolic lipid solution with the aqueous mRNA solution at a volume ratio of 1:3 using a microfluidic apparatus, total flow rate ranging from 9-30 mL/min. Ethanol were thereby removed and replaced by DPBS using dialysis. Finally, the lipid nanoparticles were filtered through a […] sterile filter.
(§2) Lipid nanoparticle size were determined by dynamic light scattering using a Malvern Zetasizer Nano ZS (Malvern UK) using a […] backscatter detection mode. The encapsulation efficiency of lipid nanoparticles were determined using a Quant-it Ribogreen RNA quantification assay kit (Thermo Fisher Scientific, UK) according to the manufacturer's instructions.

[2] = Apparent pKa of LNP formulations, TNS fluorescence assay; details: LNP cationic lipid/DSPC/cholesterol/DMG-PEG 50/10/38.5/1.5 mol %
Protocol: As reported in literature, the apparent pKa of LNP formulations correlates with the delivery efficiency of LNPs for nucleic acids in vivo. The apparent pKa of each formulation was determined using an assay based on fluorescence of 2-(p-toluidino)-6-napthalene sulfonic acid (TNS). LNP formulations comprising of cationic lipid/DSPC/cholesterol/DMG-PEG (50/10/38.5/1.5 mol %) in PBS were prepared as described above. TNS was prepared as a 300 μM stock solution in distilled water. LNP formulations were diluted to 0.1 mg/mL total lipid in 3 mL of buffered solutions containing 50 mM sodium citrate, 50 mM sodium phosphate, 50 mM sodium borate, and 30 mM sodium chloride where the pH ranged from 3 to 9. An aliquot of the TNS solution was added to give a final concentration of […] and following vortex mixing fluorescence intensity was measured at room temperature in a Molecular Devices Spectramax iD3 spectrometer using excitation and mission wavelengths of 325 nm and 435 nm. A sigmoidal best fit analysis was applied to the fluorescence data and the pKa value was measured as the pH giving rise to half-maximal fluorescent intensity.

[3] = Encapsulation efficiency of lipid nanoparticles, Quant-it Ribogreen RNA assay; details: LNP of lipid/DSPC/cholesterol/PEG-lipid 50:10:38.5:1.5 encapsulating hEPO mRNA
Protocol: as §1, §2

Row | polydispersity [1] | size (nm) [1] [nm] | Apparent Pka [2] | Encapsulation Efficiency [3] [%] | Compound
1 | 0.032 | 78.27 | 6.348 | 92.54 | CCCCCCCC/C=C\CCCCCCCC(=O)OCCCCCN(CCN(CCO)CCCCCC(=O)OCC(CCCCCCCC)CCCCCCCC)C1CCCCC1 [Compound 109]
2 | 0.042 | 64.14 | 6.335 | 90.3 | CCCCCCCCCCCOC(=O)CCCCCN(CCN(CCO)CCCCCC(=O)C(CCCCCC)CCCCCCCCC)C1CCCCC1 (stereo not shown) [Compound 46]
3 | 0.049 | 88.45 | 6.597 | 92.38 | CCCCCCCCC(CCCCCCCC)CC(=O)NCCCCCN(CCN(CCO)CCCCCOC(=O)CC(CCCCCCCC)CCCCCCCC)C1CCCCC1 [Compound 73]
4 | 0.087 | 57.20 | 7.287 | 97.00 | CCCCCCCCC(CCCCCCCC)CNC(=O)CCCCCN(CCNc1c(NC)c(=O)c1=O)CCN(C)CCCCCC(=O)OCC(CCCCCCCC)CCCCCCCC [Compound 96]
5 | 0.111 | 75.27 | 6.593 | 90.39 | CCCCCCCC(=O)OCC(CCCCN(CCO)CCCCN(CCCCC(COC(=O)CCCCCCC)COC(=O)CCCCCCC)C1CCCCC1)COC(=O)CCCCCCC [Compound 185]
6 | 0.121 | 57.96 | 6.044 | 94.10 | CCCCCCCCC(CCCCCCCC)COC(=O)CCCCCN(CCO)CCN(CCCCCC(=O)OCC(CCCCCCCC)CCCCCCCC)CCC(C)C [Compound 118]
7 | 0.063 | 70.3 |  | 95.1 | CCCCCCCCCCCC(=O)OCCCCCN(CCN(CCO)CCCCCNC(=O)CC(CCCCCCCC)CCCCCCCC)C1CCCCC1 [Compound 59]
8 | 0.051 | 71.01 |  | 89.74 | CCCCCCCCC(CCCCCC)CNC(=O)CCCCCN(CCO)CCN(CCCCC(COC(=O)CCCCCCC)COC(=O)CCCCCCC)C1CCCCC1 (stereo not shown) [Compound 140]
9 | 0.035 | 112.6 |  | 84.88 | CCCCCCCCC(CCCCCC)CNC(=O)CCN(CCO)CCN(CCCCC(COC(=O)CCCCCCC)COC(=O)CCCCCCC)C1CCCCC1 (stereo not shown) [Compound 211]
10 | 0.037 | 76.62 |  | 92.59 | CCCCCCCCC(CCCCCCCC)CC(=O)NCCCCCN(CCN(CCO)CCCCCOC(=O)CC(CCCCCCCC)CCCCCCCC)C1CCCCCCC1 [Compound 75]
11 | 0.055 | 66.15 |  | 82.8 | CCCCCCCCC(CCCCCCCC)CNC(=O)CCCCCN(CCO)CCN(CCCCCC(=O)NCC(CCCCCCCC)CCCCCCCC)C1CCC1 [Compound 11]
12 | 0.047 | 87.7 |  | 95.5 | CCCCCCCCCCCOC(=O)CCCCCN(CCN(CCO)CCCCCC(=O)OCC(CCCCCCC)CCCCCCC)C1CCCCC1 [Compound 22]
13 | 0.044 | 81.25 |  | 90.35 | CCCCCCCCCCCOC(=O)CCCCCN(CCN(CCO)CCOCCC(=O)OCC(CCCCCCCC)CCCCCCCC)C1CCC1 [Compound 114]
14 | 0.058 | 63.54 |  | 89.17 | CCCCCCCCC(CCCCCC)CNC(=O)CCCCCN(C)CCN(CCO)CCCCC(COC(=O)CCCCCCC)COC(=O)CCCCCCC (stereo not shown) [Compound 158]
15 | 0.081 | 77.48 |  | 92.6 | CCCCCCCCCCCOC(=O)CCCCCN(CCN(CCO)CCCCCC(=O)NCC(CCCCCCCC)CCCCCCCC)C1CCCCC1 [Compound 44]
16 | 0.089 | 101.6 |  | 87.7 | CCCCCCCCCCCOC(=O)CCCCCN(CCN(CCO)CCCCCC(=O)OCC(CCCCCC)CCCCCCCC)C1CCCCC1 (stereo not shown) [Compound 6]
17 | 0.158 | 70.01 |  | 91.45 | CCCCCCCCC(CCCCCC)CNC(=O)CCCCCN(CCCCN(CCO)CCCCC(COC(=O)CCCCCCC)COC(=O)CCCCCCC)C1CCCCC1 (stereo not shown) [Compound 197]
18 | 0.118 | 60.06 |  | 89.8 | CCCCCCCCC(CCCCCCCC)CNC(=O)CCCCCN(CCO)CCN(CCCCCC(=O)NCC(CCCCCCCC)CCCCCCCC)C1CCCCCC1 [Compound 14]
19 | 0.085 | 93.16 |  | 85.49 | CCCCCCCCCCCOC(=O)CCCCCN(CCN(CCO)CCCCCNP(=O)(OCCCCCCCCC)OCCCCCCCCC)C1CCCCC1 [Compound 100]
20 | 0.107 | 81.24 |  | 90.03 | CCCCCCCCC(CCCCCC)CNC(=O)CCCCCN(CCO)CCN(CCCCC(COC(=O)CCCCCCC)COC(=O)CCCCCCC)C1CCCC1 (stereo not shown) [Compound 138]
21 | 0.035 | 90.98 |  | 92.89 | CCCCCCCCCCCOC(=O)CCCCCN(CC=C(C)C)CCN(CCCCCC(=O)OCC(CCCCCCCC)CCCCCCCC)C1CCC(O)CC1 (stereo not shown) [Compound 125]
22 | 0.043 | 78.75 |  | 92.71 | CCCCCCCCC(CCCCCC)CNC(=O)CCCCCN(CC=C(C)C)CCN(CCO)CCCCC(COC(=O)CCCCCCC)COC(=O)CCCCCCC (stereo not shown) [Compound 149]
23 | 0.030 | 101.70 |  | 82.56 | CCCCCCCCCCCOC(=O)CCCCCN(CCN(CCO)CCCCCC(=O)N(CCCCCCCC)CCCCCCCC)C1CCCCC1 [Compound 90]
24 | 0.181 | 55.12 |  | 93.9 | CCCCCCCCC(CCCCCC)COC(=O)CCCCCN(CCO)CCN(CCCCCC(=O)OCC(CCCCCC)CCCCCCCC)C1CC1 (stereo not shown) [Compound 9]
25 | 0.044 | 66.62 |  | 92.43 | CCCCCCCCCCCCCCCCOC(=O)CCCCCN(CCN(CCO)CCCCCC(=O)OCC(CCCCCCCC)CCCCCCCC)C1CCCCC1 [Compound 104]
26 | 0.068 | 61.61 |  | 95.29 | CCCCCCCCCCCOC(=O)CCCCCN1CCC(N(CCO)CCCCCC(=O)OCC(CCCCCCCC)CCCCCCCC)CC1 [Compound 173]
27 | 0.087 | 69.75 |  | 92.21 | CCCCCCCCCCCOC(=O)CCCCCN(CC=C(C)C)CCN(CCO)CCCCCC(=O)OCC(CCCCCCCC)CCCCCCCC [Compound 119]
28 |  |  | 6.699 |  | CCCCCCCC(=O)OCC(CCCCN1CCC(N(CCO)CCCCC(COC(=O)CCCCCCC)COC(=O)CCCCCCC)CC1)COC(=O)CCCCCCC [Compound 180]
29 | 0.050 | 79.67 |  | 89.34 | CCCCCCCCCCCOC(=O)CCOCCN(CCN(CCO)CCOCCC(=O)OCC(CCCCCCCC)CCCCCCCC)C1CCCCC1 [Compound 117]
30 | 0.064 | 76.12 |  | 92.84 | CCCCCCCCCCCC(=O)OCCCCCN(CCN(CCO)CCCCCOC(=O)CC(CCCCCCCC)CCCCCCCC)C1CCCC1 [Compound 93]
